The record followed here is patent US4122179A, “Acid addition salts of vincamine and apovincamine” (priority 1976, dated 1978).

The nature of series [1]: Solubility. In kind it is physicochemical. The conditions noted are these: qualitative; for solubility in alcohol: alcohol (ethyl alcohol).
Series [2] can be described thus: Hematic levels at different times after oral administration (absorption). In kind it is in vivo, Wistar rat. The conditions noted are these: 100 mg/kg expressed as vincamine/apovincamine, 5% carboxymethyl cellulose suspension; for Tmax: rat, blood, po, read-out: Max. conc. time (converted). The procedure: (§1) For the compounds of the present invention a number of pharmacological and pharmacokinetic tests have been carried out. […] As regards the pharmacological and pharmacodynamic activity, it has been studied on the percent variations of the hematic flow, as recorded at the vertebral arteria in the dog after administration of the tested compounds. As regards the pharmacokinetic tests, the compounds were administered per oral route to the Wistar rat, and the hematic levels at different times from the administration were measured.
For the evaluation of the absorption, all the compounds have been orally administered at the dosage of 100 mg/kg, expressed as vincamine and apovincamine, in form of a suspension in a 5% carboxymethyl cellulose solution.
The absorption was determined by evaulating the hematic levels at the following times (minutes) : 0, 30, 120, 240, 480, 10 hours and 12 hours, in order also to assess the time from the administration (max conc.time) the maximum absorption occurred.
The vincamine and apovincamine concentrations were assessed by chromatographic method.
For the evaluation of the prolonged action of the salts and of the adducts of vincamine and apovincamine the following criterium was adopted; as derivatives having a long-acting effect, there are considered those which, 120 minutes after the administration, show hematic levels higher than those obtained with vincamine and apovincamine.

Series [3] relates to vertebral arteria. Kind of series: Cerebral vasodilating activity: hematic flow at the vertebral arteria after i.v. administration. In kind it is in vivo. To be noted: i.v. (femoral vein), 5 mg/kg of vincamine/apovincamine, anesthetized dog, 4 animals per compound. The procedure: as §1
The cerebral vasodilating activity was studied in the anestetized dog, by measuring, by means of Statham periarterial electromagnetic flowmeters, the hematic flow at the level of the […] which, in such animal species, constitutes the greatest blood supply to the brain.
The resuls are reported in the TABLE 2 (last column) as the percent variations of the flow measured at the level of the ledt vertebral arteria after the i.v. administration of the several compounds to be tested to groups of 4 animals for each compound. The results also confirm that the compounds of the invention are all endowed with a vasodilating activity at the level of the cerebral circulus, such an action being, for some compounds, much more remarkable than that of vincamine and apovincamine.

The nature of series [4]: LD50 / acute toxicity, intraperitoneal route. In kind it is in vivo. The conditions noted are these: i.p.; for Toxicity (Gleason): Gleason class in words, classes not defined.

Counter-ions that a name gives are not always drawn.

For `CC[C@@]12C=C(C(=O)OC)n3c4c(c5ccccc53)CCN(CCC1)[C@H]42` [Example 8.b, Apovincamine p-toluensulfonate], in series [1], the solubility in alcohol result is on record as “soluble” and the solubility in water entry is recorded as “insoluble”. This molecule also had a Max. conc. time in series [2] (100 mg/kg) of 480 min. In series [3] (5 mg/kg), the “% increase (percent variation of hematic flow, left vertebral arteria)” value was 29.0%. In addition, in series [4], the LD50 is given as 900 mg/kg and the “Toxicity (Gleason)” value is on record as “modest”.
`CC[C@@]12C=C(C(=O)OC)n3c4c(c5ccccc53)CCN(CCC1)[C@H]42` [Apovincamine, apovincamine] had a Max. conc. time in series [2] (100 mg/kg) of 60 min. The “% increase (percent variation of hematic flow, left vertebral arteria)” value in series [3] (5 mg/kg) was found to be 25.6%. Also, in series [4], the LD50 was determined as 2000 mg/kg and the “Toxicity (Gleason)” value is given as “negligible”.
Take “Vincamine-pectin (2:1 adduct) [Example 31.a]”: in series [1], the “solubility in the common (organic) solvents” value is listed as “practically insoluble” and the solubility in water entry is listed as “practically insoluble”. Besides, the Max. conc. time in series [2] is 240 min. For the same molecule, the “% increase (percent variation of hematic flow, left vertebral arteria)” value in series [3] is 24.9%. Also, in series [4], the LD50 came out at 2000 mg/kg and the “Toxicity (Gleason)” value was “negligible”.
As to `CC[C@]12CCCN3CCc4c(n(c5ccccc45)[C@@](O)(C(=O)OC)C1)[C@@H]32` [Example 26.a], in series [1], the “solubility in the common (organic) solvents” value is listed as “insoluble” and the solubility in water entry is given as “insoluble”. This molecule returned a Max. conc. time in series [2] (100 mg/kg) of 120 min. The “% increase (percent variation of hematic flow, left vertebral arteria)” value in series [3] (5 mg/kg) came to 23.8%. In series [4], the LD50 worked out at 1000 mg/kg and the “Toxicity (Gleason)” value was “modest”.
Consider `CC[C@]12CCCN3CCc4c(n(c5ccccc45)[C@@](O)(C(=O)OC)C1)[C@@H]32` [Example 6.a, Vincamine 2,5-dihydroxybenzoate], for which, in series [1], the solubility in alcohol result was “insoluble” and the solubility in water result was “insoluble”. This molecule came in with a Max. conc. time in series [2] (100 mg/kg) of 120 min. In series [3] (5 mg/kg), the “% increase (percent variation of hematic flow, left vertebral arteria)” value is on record as 28.0%. Moreover, in series [4], the LD50 is on record as 800 mg/kg and the “Toxicity (Gleason)” value is reported as “modest”.
As to `CC[C@]12CCCN3CCc4c(n(c5ccccc45)[C@@](O)(C(=O)OC)C1)[C@@H]32` [Example 7.a, Vincamine 3,5-dihydroxybenzoate], in series [1], the solubility in alcohol entry is listed as “insoluble” and the solubility in water result is listed as “insoluble”. Also, the Max. conc. time in series [2] (100 mg/kg) stood at 240 min. In addition, the “% increase (percent variation of hematic flow, left vertebral arteria)” value in series [3] (5 mg/kg) turned out to be 26.3%. In series [4], the LD50 is on record as 850 mg/kg and the “Toxicity (Gleason)” value was “modest”.
As to `CC[C@]12CCCN3CCc4c(n(c5ccccc45)[C@@](O)(C(=O)OC)C1)[C@@H]32` [Vincamine HCl, reference compound], the Max. conc. time in series [2] (HCl, 100 mg/kg) was 20 min. Further, the “% increase (percent variation of hematic flow, left vertebral arteria)” value in series [3] (HCl, 5 mg/kg) was 24.1%. In series [4] (HCl), the “Toxicity (Gleason)” value is “modest” and the LD50 was 800 mg/kg.
`CC[C@]12CCC[N+]3(C)CCc4c(n(c5ccccc45)[C@@](O)(C(=O)OC)C1)[C@H]23` (stereo partly shown) [Example 17.a, Vincamine methylsulfate]: in series [1], the solubility in alcohol result is given as “soluble” and the solubility in water entry is listed as “soluble”. Also, the Tmax in series [2] (100 mg/kg) is 1 h. Besides, in series [3], the “% increase (percent variation of hematic flow, left vertebral arteria)” value came to 28.4%.
In series [2] (disodium, 100 mg/kg), “glucose-6-phosphate disodium [Example 1.c]” yielded a Max. conc. time of 480 min. In addition, the “% increase (percent variation of hematic flow, left vertebral arteria)” value in series [3] (disodium, 5 mg/kg) is on record as 26.3%. In series [4], the LD50 was 2000 mg/kg and the “Toxicity (Gleason)” value is listed as “negligible”.
Consider `CC[C@@]12C=C(C(=O)OC)n3c4c(c5ccccc53)CCN(CCC1)[C@H]42` [Example 20.b, Apovincamine theophylline-7-acetate], for which the solubility in water entry in series [1] was “soluble”. This molecule also gave a Max. conc. time in series [2] (100 mg/kg) of 120 min. Besides, the “% increase (percent variation of hematic flow, left vertebral arteria)” value in series [3] (5 mg/kg) came out at 27.2%.
In series [2] (100 mg/kg), `CC[C@]12CCCN3CCc4c(n(c5ccccc45)[C@@](O)(C(=O)OC)C1)[C@@H]32` [Example 15.a, nicotinate] came in with a Max. conc. time of 60 min. Besides, the “% increase (percent variation of hematic flow, left vertebral arteria)” value in series [3] (5 mg/kg) is 21.9%. Further, in series [4], the LD50 amounted to 900 mg/kg and the “Toxicity (Gleason)” value was “modest”.
For `CC[C@]12CCCN3CCc4c(n(c5ccccc45)[C@@](O)(C(=O)OC)C1)[C@@H]32` [Example 4.c, glucose-6-phosphate acid salt] the same measures were 240 min, 28.2%, 800 mg/kg and “modest”.
Turning to Apovincamine tannate [Example 24.b], the solubility in water result in series [1] is on record as “insoluble”. In series [2], the Max. conc. time was determined as 480 min. Besides, in series [3], the “% increase (percent variation of hematic flow, left vertebral arteria)” value was 29.8%.
Turning to `CC[C@@]12C=C(C(=O)OC)n3c4c(c5ccccc53)CCN(CCC1)[C@H]42` [Example 13.b, Apovincamine D(+)-camphorsulfonate], in series [1], the solubility in alcohol result is given as “soluble” and the solubility in water result is “soluble”. In addition, the Max. conc. time in series [2] (100 mg/kg) is 120 min. Further, the “% increase (percent variation of hematic flow, left vertebral arteria)” value in series [3] (5 mg/kg) turned out to be 37.4%.
Regarding `CC[C@@]12C=C(C(=O)OC)n3c4c(c5ccccc53)CCN(CCC1)[C@H]42` [Example 12.b, Apovincamine furoate], in series [1], the solubility in alcohol entry was “soluble” and the solubility in water entry is “insoluble”. The molecule further showed a Max. conc. time in series [2] (100 mg/kg) of 240 min. The “% increase (percent variation of hematic flow, left vertebral arteria)” value in series [3] (5 mg/kg) was 24.0%.
For the molecule `CC[C@@]12C=C(C(=O)OC)n3c4c(c5ccccc53)CCN(CCC1)[C@H]42` [Example 25.b, Apovincamine (D,L)-mandelate], in series [1], the solubility in alcohol result was “soluble” and the solubility in water entry is reported as “insoluble”. The molecule also showed a Max. conc. time in series [2] (100 mg/kg) of 120 min. Moreover, in series [3] (5 mg/kg), the “% increase (percent variation of hematic flow, left vertebral arteria)” value was found to be 34.5%.
Consider glucose-6-phosphate [Example 3.c], for which, in series [2] (100 mg/kg), the Max. conc. time is 240 min. The “% increase (percent variation of hematic flow, left vertebral arteria)” value in series [3] (5 mg/kg) came out at 28.4%. For the same molecule, in series [4], the 50% lethal dose (LD50) is listed as 1000 mg/kg and the “Toxicity (Gleason)” value is recorded as “light”.
“glucose-6-phosphate disodium [Example 1.d]” displayed a Max. conc. time in series [2] (disodium, 100 mg/kg) of 120 min. Further, the “% increase (percent variation of hematic flow, left vertebral arteria)” value in series [3] (disodium, 5 mg/kg) came to 29.3%. Moreover, in series [4], the LD50 stood at 2000 mg/kg and the “Toxicity (Gleason)” value was “negligible”.
Consider `CC[C@@]12C=C(C(=O)OC)n3c4c(c5ccccc53)CC[N+](C)(CCC1)[C@H]42` (stereo partly shown) [Example 17.b, Apovincamine methylsulfate], for which, in series [1], the solubility in alcohol result is “poorly soluble” and the solubility in water entry was “soluble”. Moreover, the Tmax in series [2] (100 mg/kg) was 1 h. For the same molecule, the “% increase (percent variation of hematic flow, left vertebral arteria)” value in series [3] amounted to 29.7%.
In the case of glucose-6-phosphate [Example 3.d], the Max. conc. time in series [2] (100 mg/kg) came to 120 min. Also, in series [3] (5 mg/kg), the “% increase (percent variation of hematic flow, left vertebral arteria)” value was 28.8%. In addition, in series [4], the 50% lethal dose (LD50) amounted to 900 mg/kg and the “Toxicity (Gleason)” value was “modest”.

The LD50 is the dose expected to kill half of the subjects tested.
